Experiment [1] has as its target T1, Induced myeloid leukemia cell differentiation protein Mcl-1 (Homo sapiens, UniProt Q07820). Description: Binding affinity to MCl-1 (unknown origin) assessed as dissociation rate constant for state one.
Experiment [2] addresses T1, Induced myeloid leukemia cell differentiation protein Mcl-1. Briefly: Binding affinity to MCl-1 (unknown origin) assessed as dissociation rate constant for state two.

Drawing on BindingDB's records for doi:10.1021/acs.jmedchem.8b01153 (2019), this text covers koff for two compounds.

T1 sequence (Q07820 whole entry): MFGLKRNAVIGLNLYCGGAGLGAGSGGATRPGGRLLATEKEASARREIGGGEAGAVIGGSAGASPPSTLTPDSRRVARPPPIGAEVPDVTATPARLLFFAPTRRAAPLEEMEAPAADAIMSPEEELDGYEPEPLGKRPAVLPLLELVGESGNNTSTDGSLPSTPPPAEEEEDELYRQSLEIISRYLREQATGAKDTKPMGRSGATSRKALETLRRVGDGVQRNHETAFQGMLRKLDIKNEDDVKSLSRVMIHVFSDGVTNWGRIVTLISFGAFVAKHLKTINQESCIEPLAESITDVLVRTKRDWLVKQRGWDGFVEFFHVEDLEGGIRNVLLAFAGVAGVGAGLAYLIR

As usually defined, the koff is the rate constant with which the complex falls apart. In the case of `Cc1c(-c2cccc3c(CCCOc4cccc5ccccc45)c(C(=O)O)[nH]c23)c(COc2ccc(B(O)O)c(C=O)c2)nn1C` [7-(3-((4-Borono-3-formylphenoxy)methyl)-1,5-dimethyl-1Hpyrazol-4-yl)-3-(3-(naphthalen-1-yloxy)propyl)-1H-indole-2-carboxylic acid, 5], the koff in experiment [1] was 0.14 s⁻¹; in experiment [2] it was 0.018 s⁻¹.
With `Cc1c(-c2cccc3c(CCCOc4cccc5ccccc45)c(C(=O)O)n(C)c23)c(COc2ccc(B(O)O)c(C=O)c2)nn1C` [7-(3-((4-Borono-3-formylphenoxy)methyl)-1,5-dimethyl-1Hpyrazol-4-yl)-1-methyl-3-(3-(naphthalen-1-yloxy)propyl)-1H-indole-2-carboxylic acid, 11], the koff in experiment [1] stood at 0.13 s⁻¹; in experiment [2], 0.01 s⁻¹.
